# PMC12920295, “Novel radiohybrid PET-Tracers for SST2-targeted imaging of neuroendocrine tumors” (European Journal of Nuclear Medicine and Molecular Imaging, 2025)
# Read-outs that look alike come from different tables or passages of the source.
# Tests used:
# [1] = Lipophilicity LogDpH=7.4, shake flask method; assay type: physicochemical; details: PBS (pH = 7.4)/n-octanol, mean of n = 8
# Method: The LogDpH=7.4 was determined using a modified shake flask method as previously described.
# [2] = target: T1, human serum albumin (HSA) (Homo sapiens, UniProt P02768); experiment: HSA binding by high performance affinity chromatography (HPAC); assay type: in vitro ADME
# T1 construct: purchased H13H-2433
# Method: For the determination of binding to human serum albumin (HSA) using HPLC, a Chiralpak HSA column (50 × 3 mm, 5 μm, H13H-2433) was used at a constant flow rate of 0.5 ml/min. The mobile phase (A: NH4OAc, 50 mM in H2O, pH 6.9 and B: iPrOH) was freshly prepared for each day.
# [3] = Biodistribution 1 h p.i. in AR42J xenograft bearing CD1 nu/nu mice; assay type: in vivo; details: female, mouse, intravenous, total radioactivity, average ± Stdev
# Method: (§1) The 8-week-old female CD1 nu/nu mice were purchased from Charles River (Sulzfeld, Germany). Animal experiments were conducted according to general animal welfare regulations (German animal protection act, as amended on 18.05.2018, Art. 141 G v. 29.3.2017 I 626, approval no. 55.2-1.2-54–2532-71-13 by the General Administration of the Free State of Bavaria; Swiss animal welfare regulations: Animal Welfare Act SR 455, license: Canton de Vaud, 3781 d). To establish tumor xenografts, AR42J cells (5 × 10^6 cells in 100 µl serum-free culture medium) were inoculated subcutaneously onto the shoulder. Mice were used for experiments when tumors had grown to a diameter of 5–9 mm (7–15 days after inoculation).
# Approximately 0.5–2.5 MBq (0.05–0.20 nmol) of the ^18F-labeled ligands were injected into the tail vein of AR42J xenograft-bearing mice under isoflurane anesthesia (1.5% alveolar concentration). The mice were sacrificed 1 h post injection (n = 3–5). Organs were removed, weighed, and the activity quantified (γ-counter).
# An unpaired Welch’s t-test was applied using the GraphPad Prism software (version 10.1.2). Standard deviations for tumor-to-organ (T/O) ratios were calculated using the rules of error propagation. Thresholds for statistical significance are defined as: p > 0.05 (ns); p ≤ 0.05 (*); p ≤ 0.01 (**); p ≤ 0.001 (***); p ≤ 0.0001 (****).
# [4] = system: AR42J cells; experiment: Internalization into AR42J cells relative to [125I]TOC; assay type: cell-based; details: percentage compared to internal reference [125I]TOC
# Method: AR42J cells (European Collection of Cell Cultures, Salisbury, UK) were grown in RPMI 1640 medium (with 2 mM, L-Glu, 10% FCS; v/v, 37 °C, 5% CO2), harvested 24 ± 2 h and seeded in 24-well poly-L-lysine plates (2.0 × 10^5 cells/well in 1 ml culture medium). After removal of the medium, the cells were washed with assay medium (300 µl, RPMI 1640 with 2 mM L-Glu, 5% BSA; v/v) and incubated in assay medium (200 µl, 15 min, 37 °C, 5% CO2). 25 µl of the ^18F-labeled ligand (20 nM) and [^125I]TOC (1 nM) in assay medium were added followed by either 25 µl TOC in assay medium (100 µM, competition experiment) or 25 µl of assay medium (internalization experiment). Cells were incubated at 37 °C for 15, 30, and 60 min (n = 3 per compound and time point), respectively, and chilled on ice. The supernatant was collected, the well washed with ice-cold RPMI 1640 (300 µl), and the two fractions combined (unbound ligand). The cells were incubated with acid wash solution (300 µl, 0.9% NaCl, 50 mM NaOAc/AcOH buffer, pH = 4.6, 15 min, 4 °C) to remove receptor-bound radioligand. The supernatant was collected, and the cells washed with 300 µl ice-cold acid wash solution (combined fractions: acid releasable, receptor bound ligand). The cells were lysed with NaOH solution (300 µl, 1 M, 15 min, RT), washed with 300 µl of the same solution, the two fractions combined (internalized ligand), and all activities quantified using a γ-counter.
# [5] = target: T2, SST2 (AR42J tumor) (Rattus norvegicus, UniProt P30680); experiment: µPET/CT imaging with and without octreotide blocking in AR42J tumor bearing mice; assay type: in vivo; details: 60 min p.i.
# T2 construct: endogenous in cells; host or cells: AR42J xenograft in CD1 nu/nu mice
# Method: as §1
# 4–5 MBq (0.3–0.5 nmol) of the ^68Ga-labeled SST2-ligand were injected into the tail vein of the xenograft-bearing mice. After 1 h, the mice were anesthetized (isoflurane: 1.5% alveolar concentration) and a PET image acquired (20 min, 32 × 32, 0.5 mm) using an Albira PET/SPECT/CT (Bruker Biospin Corporation, Woodbridge, CT, USA) followed by a CT scan (10 min). For blocking, 20 µg octreotide (0.8 mg/kg) were co-injected with the tracer. The images were reconstructed (Albira reconstructor, version NMI3.3) and analyzed (PMOD, V6.3.4, Bruker).
# [6] = In-vitro stability in PBS, human serum and mouse liver extract; assay type: in vitro ADME; details: 1 h, 37 °C, radio RP-HPLC
# Method: [^natF][^68Ga]rhTATE (ca. 5 MBq) was added to 500 µl samples of mouse liver extract, human serum, or PBS, respectively. The mixtures were incubated at 37 °C for 60 min. Workup of blood and liver extract samples was performed using cartridge purification (StrataX cartridge, 33 μm Polymeric Reversed Phase, 500 mg; preconditioning: 500 µl MeOH, 5 ml H2O; washing: 3 ml H2O; elution: ACN/H2O (0.1% TFA, 1:3, v/v, 300 µl). The resulting eluates were analyzed using radio RP-HPLC (Chromolith^R RP-18e; 100 × 4.6 mm; Merck KGaA; gradient of 10–90% ACN in H2O (0.1% TFA) within 8 min; flow rate: 1 ml/min). For cross-validation of HPLC results, radio RP-TLC was equally performed for all samples (1 M citric acid/NaOH, pH = 5.0; Rf: Product: 0.0–0.2.0.2; ^68Ga: 0.8–1.0.8.0).
# [7] = parameters: method as in PMID 10774879; details: PBS (pH = 7.4)/n-octanol; cited from earlier work
# [8] = co-injection of 20 µg octreotide (0.8 mg/kg)
# T2 sequence (P30680 whole entry): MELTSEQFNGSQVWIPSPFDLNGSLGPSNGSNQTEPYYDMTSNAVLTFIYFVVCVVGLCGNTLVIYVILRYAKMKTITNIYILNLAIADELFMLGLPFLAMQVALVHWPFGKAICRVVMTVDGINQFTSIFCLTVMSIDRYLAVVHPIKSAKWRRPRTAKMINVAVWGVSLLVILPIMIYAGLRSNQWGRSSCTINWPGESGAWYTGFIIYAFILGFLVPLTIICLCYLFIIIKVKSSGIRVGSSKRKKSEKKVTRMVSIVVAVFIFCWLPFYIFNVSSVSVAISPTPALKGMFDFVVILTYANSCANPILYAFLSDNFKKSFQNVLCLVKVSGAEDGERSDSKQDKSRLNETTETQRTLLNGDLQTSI
# T1 sequence (P02768 25-609): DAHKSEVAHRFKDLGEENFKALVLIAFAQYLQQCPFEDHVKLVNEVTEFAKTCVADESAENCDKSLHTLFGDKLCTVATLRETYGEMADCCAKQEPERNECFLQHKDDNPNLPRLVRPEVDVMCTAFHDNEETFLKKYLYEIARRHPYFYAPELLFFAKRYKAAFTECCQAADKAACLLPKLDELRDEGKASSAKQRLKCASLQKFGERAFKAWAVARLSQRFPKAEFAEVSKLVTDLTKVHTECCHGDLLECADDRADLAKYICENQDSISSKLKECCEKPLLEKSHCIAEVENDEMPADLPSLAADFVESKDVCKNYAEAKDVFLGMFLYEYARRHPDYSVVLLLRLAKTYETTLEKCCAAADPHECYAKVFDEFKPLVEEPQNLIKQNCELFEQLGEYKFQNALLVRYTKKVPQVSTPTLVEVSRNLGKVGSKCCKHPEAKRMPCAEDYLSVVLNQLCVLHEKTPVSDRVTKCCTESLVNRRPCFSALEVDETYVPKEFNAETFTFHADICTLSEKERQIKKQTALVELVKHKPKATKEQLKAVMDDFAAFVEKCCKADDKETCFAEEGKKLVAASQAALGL
structure (smiles),measurement,setting,value
"C[C@@H](O)[C@H](NC(=O)[C@@H]1CSSC[C@H](NC(=O)[C@@H](Cc2ccccc2)NC(=O)CN2CCN(CC(=O)O)CCN(CC(=O)NCCCC[C@@H](NC(=O)[C@@H](CNC(=O)C[N+](C)(C)Cc3ccc([Si](F)(C(C)(C)C)C(C)(C)C)cc3)NC(=O)[C@@H](CCC(=O)O)NC(=O)[C@@H](CCC(=O)O)NC(=O)[C@H](N)CCC(=O)O)C(=O)O)CCN(CC(=O)O)CC2)C(=O)N[C@@H](Cc2ccc(O)cc2)C(=O)N[C@H](Cc2c[nH]c3ccccc23)C(=O)N[C@@H](CCCCN)C(=O)N[C@@H]([C@@H](C)O)C(=O)N1)C(=O)O [[^18/natF][^natGa]rhTATE2.5, metal not drawn]",LogDpH=7.4,[1],−2.30
same,HSA HPAC,[2]; affinity to HSA by affinity chromatography (Chiralpak HSA column),84.8%
same,tissue uptake at 1 h,"[3]; adrenal glands, AR42J tumor-bearing CD1 nu/nu mice, read-out: Biodistribution Adrenal Glands",1.52 ± 0.21 %ID/g
same,tissue uptake at 1 h,"[3]; blood, AR42J tumor-bearing CD1 nu/nu mice, read-out: Biodistribution Blood",0.32 ± 0.11 %ID/g
same,tissue uptake at 1 h,"[3]; femur, AR42J tumor-bearing CD1 nu/nu mice, read-out: Biodistribution Femur",1.05 ± 0.3 %ID/g
same,tissue uptake at 1 h,"[3]; heart, AR42J tumor-bearing CD1 nu/nu mice, read-out: Biodistribution Heart",0.18 ± 0.05 %ID/g
same,tissue uptake at 1 h,"[3]; intestine, AR42J tumor-bearing CD1 nu/nu mice, read-out: Biodistribution Intestine",1.3 ± 0.25 %ID/g
same,tissue uptake at 1 h,"[3]; kidney, AR42J tumor-bearing CD1 nu/nu mice, read-out: Biodistribution Kidney",12.5 ± 3.5 %ID/g
same,tissue uptake at 1 h,"[3]; liver, AR42J tumor-bearing CD1 nu/nu mice, read-out: Biodistribution Liver",0.4 ± 0.12 %ID/g
same,tissue uptake at 1 h,"[3]; lung, AR42J tumor-bearing CD1 nu/nu mice, read-out: Biodistribution Lung",2.73 ± 0.46 %ID/g
same,tissue uptake at 1 h,"[3]; muscle, AR42J tumor-bearing CD1 nu/nu mice, read-out: Biodistribution Muscle",0.04 ± 0.02 %ID/g
same,tissue uptake at 1 h,"[3]; pancreas, AR42J tumor-bearing CD1 nu/nu mice, read-out: Biodistribution Pancreas",11.5 ± 2.32 %ID/g
same,tissue uptake at 1 h,"[3]; spleen, AR42J tumor-bearing CD1 nu/nu mice, read-out: Biodistribution Spleen",0.35 ± 0.07 %ID/g
same,tissue uptake at 1 h,"[3]; stomach, AR42J tumor-bearing CD1 nu/nu mice, read-out: Biodistribution Stomach",6.46 ± 1 %ID/g
same,tissue uptake at 1 h,"[3]; tumor (AR42J xenograft), AR42J xenograft, CD1 nu/nu mice, read-out: Biodistribution Tumor",18.6 ± 6.18 %ID/g
same,Internalization,[4],357%
same,µPET kidney activity with SST2 blocking,[5]; [8],significantly reduced kidney activity
same,µPET tumor signal with SST2 blocking,[5]; [8],no detectable tumor signal
same,µPET uptake in the tumor and kidneys,"[5]; control mouse, 4 MBq, 0.5 nmol tracer/mouse",intense
same,in vitro stability,[6],stable over 60 min
"C[C@@H](O)[C@H](NC(=O)[C@@H]1CSSC[C@H](NC(=O)[C@@H](Cc2ccccc2)NC(=O)CN2CCN(CC(=O)O)CCN(CC(=O)O)CCN(CC(=O)O)CC2)C(=O)N[C@@H](Cc2ccc(O)cc2)C(=O)N[C@H](Cc2c[nH]c3ccccc23)C(=O)N[C@@H](CCCCN)C(=O)N[C@@H]([C@@H](C)O)C(=O)N1)C(=O)O [[^nat/68Ga]DOTA-TATE, metal not drawn, reference compound]",HSA HPAC,[2],88.9%
same,LogDpH=7.4,[7],−3.69 [24]
same,Internalization,[4],570%
